Test results reported in patent publication US20140128472A1, “TREATMENT AND PREVENTION OF DISEASES RELATED TO OXIDATIVE STRESS” (UNIVERSITY OF PÉCS, priority 2011, published 2014).
“Also recorded” adds a separate entry of the source.

Legend:
[1] = system: 3T3-L1 adipocytes; experiment: Insulin-dependent uptake of deoxy-D-glucose 2-[1 2-3H(N)] into 3T3-L1 adipocytes; type: cell-based, mouse
Protocol: (§1) Primary cultures of mouse embryo fibroblasts (3T3-L1) were purchased from ATCC (Manassas, US). Early passages of 3T3-L1 fibroblasts were cultured in Dulbecco's modified Eagle medium ((DMEM, Invitrogen, CAT number: 41966-029; Sigma Aldrich CAT number: D6046) supplemented with 10% Fetal Bovine Serum (Gibco, CAT number: 16170-078), 100 U/ml penicillin and 0.1 mg/ml streptomycin (Gibco, CAT number: 15070-063) and 398 nM p-, m-, or o-Tyr. DMEM contained 25 or 5 mM glucose (depending on the experiment), L-glutamine, and pyruvate. Cells were grown in a humidified incubator at 37° C. and 5% CO2. Differentiation medium consisted of DMEM supplemented with 10% Fetal Bovine Serum (FBS, Gibco, Csertex, Budapest, Hungary, CAT number: 10106-169) (FBS), to which a cocktail was added containing […] isobuthylmethylxanthine (Sigma Aldrich, CAT number: I 5879), 0.17 nM insulin (Sigma Aldrich, CAT number: I 9278) and 250 nM dexamethasone (Sigma Aldrich, CAT number: 861871). From Day 4 onward, cells were maintained in DMEM/10% FBS containing 1.5 pg/ml insulin with a media change every other day until experimental treatments were initiated. For all treatments, cells were incubated overnight in serum-deprived medium after 90% of the cell population reached the adipocyte phenotype.
Cells were incubated in glucose free DMEM (Gibco, Csertex, Hungary) for 30 minutes, then treated with 2, 20, 200 or 400 nmol/l insulin for 100 minutes. Simultaneously 1 μCi/ml deoxy-D-glucose 2-[1 2-3H(N)] (3.7×104 Bq/ml) (Izotóp Intézet, Hungary) was added to the plates for 100 minutes Cells were scraped into the medium and centrifuged for 5 minutes at 1000 rpm. The sediment was dissolved in 70 μl of lysis-buffer and glucose uptake was assessed by scintillation counting measuring 30 μl of the sample with a Beckman LS 5000 TD counter in counts per minute (CPM) for five minutes each, using an average activity as the outcome. Samples were frozen overnight at −70° C. and protein concentration was measured using a Hitachi spectrophotometer. Results were normalized for protein content (Kaddai2009).

[2] = system: Akt (PKB); experiment: Erythropoietin-dependent phosphorylation of Akt (PKB) in 3T3-L1 adipocytes (Western blot); type: cell-based, mouse; conditions: 25 mM glucose; various concentrations of erythropoietin
[3] = Body weight of rats during four-week tyrosine isomer supplementation; type: in vivo, Sprague-Dawley rats; conditions: four weeks, 1.76 mg/die, vs vehicle
Protocol: In further tyrosine isomer incorporation studies when effects of chronic oral p-Tyr and o-Tyr supplementation of rats on the o-Tyr level and insulin-induced relaxation of isolated arterial segments were studied, 18 Male Sprague-Dawley rats (5-6 week-old) were used. Rats were orally supplied with either 1.76 mg/die of p-Tyr or o-Tyr or vehicle during six days per week for four weeks. […] At the end of four-week treatment, HPLC and vasomotor studies were performed. In another group of rats, p-Tyr/o-Tyr supplementation was discontinued for four weeks (“washout” period), after which they were sacrificed for HPLC and vasomotor studies.

[4] = system: 3T3-L1 adipocytes; experiment: Erythropoietin-dependent uptake of deoxy-D-glucose into 3T3-L1 adipocytes; type: cell-based, mouse; conditions: 5 mM glucose; various concentrations of EPO
Protocol: as §1, with “From Day 4 onward, cells were maintained in DMEM/10% FBS containing 1.5 pg/ml insulin with a media change every other day until experimental treatments were initiated. For all treatments, cells were incubated overnight in serum-deprived medium after 90% of the cell population reached the adipocyte phenotype.” left out
[…] The sediment was dissolved in 70 μl of lysis-buffer and glucose uptake was assessed by scintillation counting measuring 30 μl of the sample with a Beckman LS 5000 TD counter in counts per minute (CPM) for five minutes each, using an average activity as the outcome. Samples were frozen overnight at −70° C. and protein concentration was measured using a Hitachi spectrophotometer. […]

[5] = Example p-Tyr treatment regimen in a patient (hsCRP, serum insulin, plasma glucose); type: in vivo, human
Protocol: As a further example, a patient attends medical control with a complaint of high blood pressure and increased stress at regular daily work in the last month. In this situation they relate an increased intake of coffein and sugar. Their high sensitivity C-reactive protein (hsCRP) level is measured as well as their serum insulin, and plasma glucose level.

[6] = system: thoracic and abdominal aorta, renal and femoral arteries; experiment: Insulin-induced relaxation of isolated arterial segments after oral tyrosine isomer supplementation of rats; set-up: species or system Sprague-Dawley rats; conditions: proposed experiment: sustained in vivo supplementation with o-Tyr and p-Tyr together
[7] = cells grown 11 days on medium with the tyrosine isomer + 5 mM glucose, insulin 2, 20, 200, 400 nM

SMILES | Insulin-induced glucose uptake at equimolar concentrations with p-Tyr ([1]; 72-72 mg/l m-Tyr or o-Tyr and p-Tyr, insulin 400 nM) | Insulin-dependent deoxy-D-glucose uptake [1, 7] | Baseline glucose uptake ([1]; cells grown on m-Tyr- or o-Tyr-containing medium (72 mg/l) for different time periods, no insulin) | Insulin-induced glucose uptake, time dependence ([1]; m-Tyr or o-Tyr 72 mg/l for different time periods, insulin 400 nM, time-dependent manner) | Ability to inhibit insulin-induced glucose uptake, dependence on concentration ([1]; m-Tyr or o-Tyr 2.25-72 mg/l with p-Tyr 72 mg/l, insulin 400 nM) | EPO-dependent Akt phosphorylation [2] | Body weight [3] | EPO-induced glucose uptake compared to the para-Tyr control [4] | hsCRP, serum insulin and plasma glucose level ([5]; p-Tyr 3 g daily (three times 1 g), after a month) | hsCRP, serum insulin and plasma glucose level ([5]; p-Tyr therapy continued, after a further month) | Insulin-dependent deoxy-D-glucose uptake ([1]; cells grown 11 days on p-Tyr + high glucose (25 mM)) | Increase in glucose uptake by insulin ([1]; cells grown on p-Tyr and normal glucose, insulin 400 nM) | Excess concentration of p-Tyr over m-Tyr or o-Tyr in the media needed to compete ([1]; read from FIG. 3, insulin 400 nM) | Diminished response to insulin in isolated arterial segments [6]
N[C@@H](Cc1ccccc1O)C(=O)O [o-Tyr, Ortho-L-tyrosine] | fully inhibit insulin-induced glucose uptake; also recorded: insulin had no effect on glucose uptake at all | no insulin effect could be verified | did not show a marked change | blocked | concentration-dependent | inhibited the normal increase in the Akt phosphorylation | no difference between the groups | inhibited | – | – | – | – | – | –
N[C@@H](Cc1ccc(O)cc1)C(=O)O [p-Tyr, Para-L-tyrosine] | – | increasing concentrations of insulin lead to an increase in deoxy-D-glucose uptake | – | – | – | – | no difference between the groups | – | somewhat diminished | returned to the medium normal range | insulin failed to increase glucose uptake | approx. 2 fold | 8-32 fold | reversed
